Measurements published in ChEMBL document CHEMBL1133310, “Naphthalene carboxamides as inhibitors of human cytomegalovirus DNA polymerase” (Bioorg Med Chem Lett, 2000).

The compounds below were run on HFF (assay: Antiviral activity in a cell-based plaque reduction assay, using an HFF cell line and the Davis strain of HCMV). Details: Homo sapiens.
Assay type: functional
In the case of `O=C(NCc1ccc(Cl)cc1)c1cc2cccc(O)c2cc1O`, the IC50 is reported as 0.6 µM.
For `COc1ccc2cc(O)c(C(=O)NCc3ccc([N+](=O)[O-])cc3)cc2c1`, the IC50 was 3.7 µM.
`O=C(NCc1ccc(Cl)cc1)c1cc2cc(O)ccc2cc1O` showed an IC50 of 1 µM.
`O=C(NCc1ccc(Cl)cc1)c1ccc2ccccc2c1O` was tested, and the IC50 was over 20 µM.
Work on `COc1ccc2cc(O)c(C(=O)Nc3nc4c(Cl)cccc4s3)cc2c1` yielded an IC50 of over 5 µM.
In the case of `O=C(NCCc1ccc(Cl)cc1)c1cc2ccccc2cc1O`, the IC50 is reported as over 20 µM.
With `O=C(NCc1ccc([N+](=O)[O-])cc1)c1cc2cccc(O)c2cc1O` the IC50 was 1.5 µM.
`Nc1nc2c(ncn2COC(CO)CO)c(=O)[nH]1` [GANCICLOVIR] gave an IC50 of 0.6 µM.

The compounds below were run against T1, DNA polymerase alpha catalytic subunit (Homo sapiens, UniProt P09884) (assay: Compound was evaluated for the inhibitory activity against Human alpha polymerase). Details: not given.
T1 sequence (P09884 whole entry): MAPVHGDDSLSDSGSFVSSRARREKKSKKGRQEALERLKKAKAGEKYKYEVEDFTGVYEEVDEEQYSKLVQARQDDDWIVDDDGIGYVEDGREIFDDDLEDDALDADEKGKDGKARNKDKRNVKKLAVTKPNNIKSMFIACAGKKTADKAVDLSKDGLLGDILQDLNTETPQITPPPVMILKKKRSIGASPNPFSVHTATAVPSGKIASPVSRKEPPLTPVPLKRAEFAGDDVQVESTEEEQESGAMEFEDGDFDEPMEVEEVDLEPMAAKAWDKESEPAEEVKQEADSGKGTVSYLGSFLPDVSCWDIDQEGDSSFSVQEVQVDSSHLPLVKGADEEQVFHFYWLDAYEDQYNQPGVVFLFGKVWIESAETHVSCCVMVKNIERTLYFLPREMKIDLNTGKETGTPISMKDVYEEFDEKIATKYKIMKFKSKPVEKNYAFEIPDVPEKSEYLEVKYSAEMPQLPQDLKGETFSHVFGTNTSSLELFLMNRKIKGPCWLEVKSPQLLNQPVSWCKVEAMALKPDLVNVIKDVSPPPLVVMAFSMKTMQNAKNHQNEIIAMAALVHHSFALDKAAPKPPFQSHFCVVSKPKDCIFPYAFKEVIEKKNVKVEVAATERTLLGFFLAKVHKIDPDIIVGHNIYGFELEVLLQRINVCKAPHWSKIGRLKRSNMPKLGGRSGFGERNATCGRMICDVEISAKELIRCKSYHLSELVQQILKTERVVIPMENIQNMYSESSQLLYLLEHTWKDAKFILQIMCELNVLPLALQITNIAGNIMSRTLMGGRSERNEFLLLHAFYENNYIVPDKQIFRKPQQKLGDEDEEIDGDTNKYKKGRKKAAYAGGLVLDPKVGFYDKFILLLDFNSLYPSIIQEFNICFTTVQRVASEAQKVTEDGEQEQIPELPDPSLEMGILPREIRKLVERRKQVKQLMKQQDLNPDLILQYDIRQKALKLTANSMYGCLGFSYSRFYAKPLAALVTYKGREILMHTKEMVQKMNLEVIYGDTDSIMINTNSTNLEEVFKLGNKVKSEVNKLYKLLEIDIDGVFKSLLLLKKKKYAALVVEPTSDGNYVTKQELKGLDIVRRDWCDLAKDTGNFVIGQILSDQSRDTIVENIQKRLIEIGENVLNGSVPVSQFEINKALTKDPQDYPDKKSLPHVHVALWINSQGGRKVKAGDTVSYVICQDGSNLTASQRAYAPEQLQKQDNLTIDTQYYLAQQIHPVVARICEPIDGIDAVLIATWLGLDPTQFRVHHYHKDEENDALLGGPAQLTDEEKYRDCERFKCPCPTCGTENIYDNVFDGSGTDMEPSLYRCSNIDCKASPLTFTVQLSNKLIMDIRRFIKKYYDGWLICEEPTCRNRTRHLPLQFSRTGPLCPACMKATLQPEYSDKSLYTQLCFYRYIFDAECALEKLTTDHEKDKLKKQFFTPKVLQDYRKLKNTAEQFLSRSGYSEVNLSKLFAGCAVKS
Compound `O=C(Nc1cccc([N+](=O)[O-])c1)c1cc2ccccc2cc1O` has an IC50 of 32 µM.
